Tested on: soybean plants containing event EE-GM5
Test: HPPD inhibitor herbicide tolerance field trials on plants with EE-GM5 (maximum phytotoxicity)
Type: in vivo, soybean (Glycine max)
Conditions: for tolerance of plants with EE-GM5 to the herbicide: field, different locations over 2 years, applied pre-emergence or post-emergence
Procedure: Tolerance of plants comprising EE-GM5 to HPPD inhibitor herbicides was tested at different locations in the field over 2 years. […] All post-emergence treatments were at the V2-V3 stage, with adjuvants crop oil concentrate and ammonium sulfate added to increase herbicide activity.
The “maximum phytotoxicity” as used herein is the highest phytotoxicity rating recorded at any observation during the duration of a trial (with 3 to 4 observations per trial). In existing weed control applications, a normal (1×) dose for isoxaflutole (IFT) in pre- or post-emergence application and for MST in post-emergence application is 105 gr/ha, and a normal (1×) dose for mesotrione in pre-emergence application is 210 gr/ha.
Also, in several field trials across 2 years, soybean plants with event EE-GM5 had good tolerance towards experimental HPPD inhibitor compound 2-methyl-N-(5-methyl-1,3,4-oxadiazol-2-yl)-3-(methylsulfonyl)-4-(trifluoromethyl)benzamide (U.S. Pat. No. 9,101,141) when applied pre-emergence at 400 gr ai/ha or post-emergence at 200 gr ai/ha, respectively (the average maximum phytotoxicity value for each treatment was below 20%). […] All post-emergence treatments were at the V2-V3 stage, with adjuvants crop oil concentrate and ammonium sulfate added to increase herbicide activity.
Also, plants with EE-GM5 when treated post-emergent (V2-V3) with topramezone at 36 g ai/ha (+COC and AMS) in 2 field trials in the US gave an average maximum phytotoxicity of 11%, showing EE-GM5 also confers good tolerance to this HPPD inhibitor.

In the case of `CSc1c(C(F)(F)F)ccc(C(=O)Nc2nnnn2C)c1Cl` [2-chloro-3-(methylsulfanyl)-N-(1-methyl-1H-tetrazol-5-yl)-4-(trifluoromethyl)benzamide], the average maximum phytotoxicity (3rd year, EE-GM5 in Thorne background, 150 g/ha post-emergence, 3 field trial locations) is reported as 13.3% and the average maximum phytotoxicity (several field trials across 2 years, post-emergence (V2-V3) at 100-150 gr ai/ha) is reported as 20%.
With `Cc1nnc(NC(=O)c2ccc(C(F)(F)F)c(S(C)(=O)=O)c2C)o1` [2-methyl-N-(5-methyl-1,3,4-oxadiazol-2-yl)-3-(methylsulfonyl)-4-(trifluoromethyl)benzamide] the “average maximum phytotoxicity value” (several field trials across 2 years, post-emergence (V2-V3) at 200 gr ai/ha) was “below 20%” and the “average maximum phytotoxicity value” (several field trials across 2 years, pre-emergence at 400 gr ai/ha) was “below 20%”.
`CS(=O)(=O)c1cc(C(F)(F)F)ccc1C(=O)c1cnoc1C1CC1` [isoxaflutole, (5-cyclopropyl-4-isoxazolyl)[2-(methylsulfonyl)-4-(trifluoromethyl)phenyl]methanone] was tested, and the average maximum phytotoxicity (3rd year, EE-GM5 in Thorne background, post-emergence V2-V3 stage at 210 g/ha, 4 locations) was 10.9%, the maximum phytotoxicity (3rd year, EE-GM5 in Thorne background, pre-emergence at 410 g/ha, one field trial location) was 9% and the “tolerance of plants with EE-GM5 to the herbicide” value was “commercially relevant tolerance”.
For `CS(=O)(=O)c1ccc(C(=O)C2C(=O)CCCC2=O)c([N+](=O)[O-])c1` [mesotrione, 2-[4-(Methylsulfonyl)-2-nitrobenzoyl]cyclohexane-1,3-dione], the “tolerance of plants with EE-GM5 to the herbicide” value was “commercially relevant tolerance”.
`Cc1c(C(=O)c2cnn(C)c2O)ccc(S(C)(=O)=O)c1C1=NOCC1` [topramezone, [3-(4,5-dihydro-3-isoxazolyl)-2-methyl-4-(methylsulfonyl)phenyl](5-hydroxy-1-methyl-1H-pyrazol-4-yl)methanone] was tested, and the average maximum phytotoxicity (post-emergent (V2-V3) at 36 g ai/ha (+COC and AMS), 2 field trials in the US) was 11%.
